Common to all, as to assay type: in vivo
The subject of assay [1] is cattle ticks (Rhipicephalus microplus) strain Parkhurst, SP-resistant. The experiment in a line: Rhipicephalus (Boophilus) microplus dip test. To be noted: 168 h, application rate 100 ppm, egg deposition after 7 days, read-out: activity (efficacy: infertile eggs). As for the experimental part:
Rhipicephalus (Boophilus) microplus—Din Test
Test animal: cattle ticks (Rhipicephalus microplus) strain Parkhurst, SP-resistant
Solvent: dimethyl sulfoxide
To produce a suitable preparation of active compound, 10 mg of active compound are dissolved in 0.5 mL solvent, and the concentrate is diluted with water to the desired concentration.
This compound solution is pipetted into tubes. 8-10 engorged, adult, female cattle ticks (Rhipicephalus microplus) are placed in perforated tubes. These tubes are immersed in the aqueous compound solution until the ticks are completely moistened. After the liquid has drained off, the ticks are transferred to a filter paper in a plastic tray and stored in a climate chamber.
After 7 days egg deposition of fertile eggs is monitored. Eggs where fertility is not visible are stored in a climate chamber till hatching after about 42 days. An efficacy of 100% means all eggs are infertile; 0% means all eggs are fertile.

For assay [2], the system named is larvae of the banded cucumber beetle (Diabrotica balteata). The experiment in a line: Diabrotica balteata spray test. The conditions noted are these: 168 h, after 7 days, read-out: activity (efficacy: seedlings grown); for pest or weed control at 100 g/ha: application rate 100 g/ha (=32 pg/well); for pest or weed control at 500 g/ha: application rate 500 g/ha (=160 pg/well). In short, it runs like this:
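Wheat seedlings, germinated 1 day on agar (5 seeds/well), sprayed with active compound in acetone/DMF diluted in water containing 1000 ppm emulsifier, then infested with 10-20 D. balteata larvae. Efficacy (%) scored after 7 days: 100% = seedlings grown as untreated uninfested control, 0% = no seedlings grown.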

Assay [3] concerns Aedes aegypti strain MONHEIM. Nature of the assay: Aedes aegypti test (AEDSAE surface treatment & contact assay). The conditions noted are these: 24 hours after contact, read-out: efficacy (mortality); for mortality at 4 mg/m2: surface concentration 4 mg/m^2, exposure 30 minutes; for mortality at 20 mg/m2: surface concentration 20 mg/m^2, exposure 30 minutes. The method in brief: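 Compound in acetone (2 mg/ml) with 2000 ppm RME pipetted onto glazed tile and dried; adult Aedes aegypti MONHEIM exposed 30 min. Percent mortality scored 24 h after contact.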

For assay [4], the system named is Culex quinquefasciatus strain P00. The experiment in a line: Culex quinquefasciatus test (CULXFA surface treatment & contact assay). The conditions noted are these: 24 hours after contact, read-out: efficacy (mortality); for mortality at 20 mg/m2: surface concentration 20 mg/m^2, exposure 30 minutes; for mortality at 4 mg/m2: surface concentration 4 mg/m^2, exposure 30 minutes. The method in brief:
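Compound in acetone (2 mg/ml) with 2000 ppm rapeseed oil methyl ester, dried onto glazed tile. Adult mosquitoes exposed to the treated surface for 30 min. Percent mortality scored 24 h after contact.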

In assay [5] the test system is Anopheles funestus strain FUMOZ-R. Nature of the assay: Anopheles funestus test (ANPHFU surface treatment & contact assay). The conditions noted are these: 24 hours after contact, read-out: efficacy (mortality); for mortality at 4 mg/m2: surface concentration 4 mg/m^2, exposure 30 minutes; for mortality at 20 mg/m2: surface concentration 20 mg/m^2, exposure 30 minutes. The method in brief: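 Compound dissolved in acetone at 2 mg/ml with 2000 ppm RME, pipetted onto glazed tile; acetone evaporated. Adult FUMOZ-R mosquitoes exposed to dried surface for 30 min. Percent mortality scored 24 h after contact.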

Assay [6] relates to Musca domestica strain WHO-N. The experiment in a line: Musca domestica test (MUSCDO surface treatment & contact assay). To be noted: 24 hours after contact, read-out: efficacy (mortality); for mortality at 20 mg/m2: surface concentration 20 mg/m^2, exposure 30 minutes; for mortality at 4 mg/m2: surface concentration 4 mg/m^2, exposure 30 minutes. In short, it runs like this:
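Compound dissolved at 2 mg/ml in acetone with 2000 ppm rapeseed oil methyl ester and pipetted onto a glazed tile. After the acetone evaporated, adult WHO-N flies were exposed to the dried surface for 30 min, with % mortality scored 24 h after contact.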

For assay [7], the system named is adult brown dog ticks (Rhipicephalus sanguineus). The experiment in a line: Rhipicephalus sanguineus in-vitro contact test, adult brown dog ticks. The conditions noted are these: after 48 hours, read-out: activity (efficacy: ticks dead or moribund); for pest or weed control at 100 g/ha: application rate 1 pg/cm^2 (=100 g/ha); for pest or weed control at 5 µg/cm2, 500 g/ha: application rate 5 μg/cm^2 (=500 g/ha). The method in brief: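 Compound in acetone was coated onto inner walls of glass tubes by rotation (2 h, 30 rpm); 900 ppm gives 5 μg/cm^2. After drying, 5-10 adult ticks were enclosed per tube at room temperature; after 48 h, heat-escape test at 45-50° C scored dead/moribund ticks as % efficacy.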

`C[C@H](NC(=O)c1cc(Cl)cc(S(C)(=O)=O)c1)c1nc(C2CC2)nn1-c1ccc(C#N)cn1` [I-4]: the pest or weed control at 100 ppm in assay [1] came to 100%. In assay [2], the pest or weed control at 100 g/ha was found to be 100% and the pest or weed control at 500 g/ha was 100%. Besides, in assay [3], the mortality – broadly, the percentage killed – at 4 mg/m2 lay within 80 to 100% and the mortality at 20 mg/m2 fell in the range of 80 to 100%.
With `Cc1nc([C@H](C)NC(=O)c2cc(C(F)(F)F)n(C)n2)n(-c2ccc(C#N)cn2)n1` [II-7], in assay [2], the pest or weed control at 100 g/ha came to 100%. Also, the pest or weed control at 500 g/ha in assay [2] is 100%. Further, the mortality at 4 mg/m2 in assay [3] and in assay [5] was 80 to 100% each time. Also, the mortality at 20 mg/m2 in assay [3], in assay [4] and in assay [6] was 80 to 100% throughout.
Turning to `Cc1nc([C@H](C)NC(=O)c2cc(Cl)nn2C)n(-c2ccc(C#N)cn2)n1` [II-11], the pest or weed control at 100 g/ha in assay [7] was 80%; in assay [2] it was 100%. Also, the pest or weed control at 5 µg/cm2, 500 g/ha in assay [7] worked out at 80%. In assay [2], the pest or weed control at 500 g/ha stood at 100%. Moreover, the mortality at 4 mg/m2 in assay [3], in assay [4], in assay [5] and in assay [6] was 80 to 100% throughout. Moreover, the mortality at 20 mg/m2 in assay [3] and in assay [5] was 80 to 100% throughout.
Turning to `C[C@H](NC(=O)c1cc(C(F)(F)F)cc(S(C)(=O)=O)c1)c1ncnn1-c1ncccn1` [II-13], the pest or weed control at 100 ppm in assay [1] came to 100%. Also, the pest or weed control at 100 g/ha in assay [2] came out at 100%. The pest or weed control at 500 g/ha in assay [2] came out at 100%. Besides, the mortality at 4 mg/m2 in assay [3], in assay [4], in assay [5] and in assay [6] was 80 to 100% in each case. For the same molecule, the mortality at 20 mg/m2 in assay [3] was in the range of 80 to 100%.
As for `C[C@H](NC(=O)c1cc(OC(F)(F)F)cc(C2CC2)c1)c1ncnn1-c1ccc(Cl)cn1` [II-23], the pest or weed control at 100 g/ha in assay [7] and in assay [2] was 100% each time. The pest or weed control at 5 µg/cm2, 500 g/ha in assay [7] was found to be 100%. The pest or weed control at 500 g/ha in assay [2] worked out at 100%. Moreover, the mortality at 4 mg/m2 in assay [3], in assay [4] and in assay [6] was 80 to 100% each time. Moreover, the mortality at 20 mg/m2 in assay [3], in assay [4], in assay [5] and in assay [6] was 80 to 100% in each case.
In the case of `Cc1nc([C@H](C)NC(=O)c2cc(C(F)(F)F)n(C)n2)n(-c2ncccn2)n1` [II-25], the pest or weed control at 100 g/ha in assay [7] was 100%. Further, in assay [7], the pest or weed control at 5 µg/cm2, 500 g/ha came to 100%. The pest or weed control at 500 g/ha in assay [2] is 100%. In addition, the mortality at 4 mg/m2 in assay [3], in assay [4], in assay [5] and in assay [6] was 80 to 100% each time. For the same molecule, the mortality at 20 mg/m2 in assay [3], in assay [4], in assay [5] and in assay [6] was 80 to 100% throughout.
With `C[C@H](NC(=O)c1cc(C2CC2)cc(C(F)(F)F)c1)c1ncnn1-c1ccc(Cl)cn1` [II-27], the pest or weed control at 100 g/ha in assay [7] and in assay [2] was 100% each time. In addition, the pest or weed control at 5 µg/cm2, 500 g/ha in assay [7] was found to be 100%. Also, in assay [2], the pest or weed control at 500 g/ha was 100%. In addition, the mortality at 4 mg/m2 in assay [3], in assay [4], in assay [5] and in assay [6] was 80 to 100% each time. Besides, the mortality at 20 mg/m2 in assay [3], in assay [4] and in assay [6] was 80 to 100% in each case.
For the molecule `C[C@H](NC(=O)c1cc(Cl)cc(S(=O)(=O)C(F)F)c1)c1ncnn1-c1ncccn1` [II-34], the pest or weed control at 100 g/ha in assay [7] and in assay [2] was 100% each time. The pest or weed control at 5 µg/cm2, 500 g/ha in assay [7] came to 100%. In assay [2], the pest or weed control at 500 g/ha amounted to 100%. Also, the mortality at 4 mg/m2 in assay [3], in assay [4] and in assay [5] was 80 to 100% each time. Further, the mortality at 20 mg/m2 in assay [3], in assay [4], in assay [5] and in assay [6] was 80 to 100% throughout.
`Cc1nc([C@H](C)NC(=O)c2cc(OC(F)(F)F)cc(C3CC3)c2)n(-c2ccc(C#N)cn2)n1` [II-39]: in assay [1], the pest or weed control at 100 ppm turned out to be 100%. Also, the pest or weed control at 100 g/ha in assay [7] and in assay [2] was 100% each time. In addition, the pest or weed control at 5 µg/cm2, 500 g/ha in assay [7] amounted to 100%. Also, the mortality at 4 mg/m2 in assay [3] and in assay [6] was 80 to 100% throughout. Further, the mortality at 20 mg/m2 in assay [3], in assay [4] and in assay [6] was 80 to 100% in each case.
On to `C[C@H](NC(=O)c1cc(Cl)cc(S(C)(=O)=O)c1)c1ncnn1-c1ncc(OC(F)F)cn1` [II-42], for which the pest or weed control at 100 ppm in assay [1] was 100%. Besides, the pest or weed control at 100 g/ha is 100% in assay [7] and 80% in assay [2]. Also, the pest or weed control at 5 µg/cm2, 500 g/ha in assay [7] was 100%. Also, the mortality at 4 mg/m2 in assay [3], in assay [4] and in assay [5] was 80 to 100% each time. The mortality at 20 mg/m2 in assay [3], in assay [4] and in assay [5] was 80 to 100% throughout.
Take `C[C@H](NC(=O)c1cc(C(F)(F)F)cc(C2(C#N)CC2)c1)c1ncnn1-c1ccc(C#N)cn1` [II-47]: the pest or weed control at 100 ppm in assay [1] turned out to be 100%. The pest or weed control at 100 g/ha in assay [7] and in assay [2] was 100% in each case. For the same molecule, the pest or weed control at 5 µg/cm2, 500 g/ha in assay [7] worked out at 100%. For the same molecule, the mortality at 4 mg/m2 in assay [3], in assay [5] and in assay [6] was 80 to 100% each time. The mortality at 20 mg/m2 in assay [3], in assay [5] and in assay [6] was 80 to 100% throughout.
On to `C[C@H](NC(=O)c1cc(C(F)(F)F)cc(C2(C#N)CC2)c1)c1ncnn1-c1ccc(Cl)cn1` [II-48], for which, in assay [1], the pest or weed control at 100 ppm is 100%. Further, the pest or weed control at 100 g/ha in assay [7] and in assay [2] was 100% in each case. The pest or weed control at 5 µg/cm2, 500 g/ha in assay [7] came out at 100%. Further, the mortality at 4 mg/m2 in assay [3], in assay [5] and in assay [6] was 80 to 100% in each case. The mortality at 20 mg/m2 in assay [3], in assay [5] and in assay [6] was 80 to 100% in each case.
Turning to `Cc1nc([C@H](C)NC(=O)c2cc(C(F)(F)F)cc(C3(C#N)CC3)c2)n(-c2ccc(C#N)cn2)n1` [II-49], the pest or weed control at 100 ppm in assay [1] is 100%. The pest or weed control at 100 g/ha in assay [7] and in assay [2] was 100% throughout. The pest or weed control at 5 µg/cm2, 500 g/ha in assay [7] stood at 100%. Besides, the mortality at 4 mg/m2 in assay [3] and in assay [6] was 80 to 100% throughout. The mortality at 20 mg/m2 in assay [3], in assay [5] and in assay [6] was 80 to 100% throughout.

These data come from patent US20260206761A1, “HETEROARYL-TRIAZOLE COMPOUNDS AS PESTICIDES” (Bayer Aktiengesellschaft, priority 2019, published 2026).
